Measured values: ChEMBL document CHEMBL1201862, “PubChem BioAssay data set” (2004)
The source made the active and inactive calls.

What was measured:
Mu-type opioid receptor = Mu-type opioid receptor (Homo sapiens, UniProt P35372); assay: (§1) Counterscreen for agonists of heterodimerization of the mu 1 (OPRM1) and delta 1 (OPRD1) opioid receptors: Luminescence-based cell-based high throughput dose response assay to identify agonists of OPRM1 homodimerization.; type: functional
[1] = molecular target: 5-hydroxytryptamine receptor 5A (Homo sapiens, UniProt P47898); assay: Counterscreen for agonists of OPRM1-OPRD1 heterodimerization: luminescence-based cell-based high throughput dose response assay to identify agonists of 5-hydroxytryptamine (serotonin) 5A receptor (HTR5A). [Related pubchem assays (depositor defined):AID504326, AID504355, AID504692, AID504904, AID504905]; type: functional
Sequence of 5-hydroxytryptamine receptor 5A (P47898 whole entry): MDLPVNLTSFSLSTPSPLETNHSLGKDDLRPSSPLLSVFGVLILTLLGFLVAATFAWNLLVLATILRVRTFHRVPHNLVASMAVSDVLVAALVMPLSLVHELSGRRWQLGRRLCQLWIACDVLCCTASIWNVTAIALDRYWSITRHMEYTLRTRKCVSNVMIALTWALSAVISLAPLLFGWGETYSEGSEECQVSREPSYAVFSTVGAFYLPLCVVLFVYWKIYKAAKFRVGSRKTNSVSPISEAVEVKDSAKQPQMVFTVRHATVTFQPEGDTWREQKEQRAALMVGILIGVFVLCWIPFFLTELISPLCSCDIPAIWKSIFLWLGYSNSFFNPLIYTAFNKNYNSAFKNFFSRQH

[2] = molecular target: Delta-type opioid receptor (Homo sapiens, UniProt P41143); assay: as §1, with “of OPRD1” for “of OPRM1”, “homodimerization. [Related pubchem assays (depositor defined):AID504326, AID504355, AID504692, AID504904, AID504905]” for “homodimerization.”; type: functional
Sequence of Delta-type opioid receptor (P41143 whole entry): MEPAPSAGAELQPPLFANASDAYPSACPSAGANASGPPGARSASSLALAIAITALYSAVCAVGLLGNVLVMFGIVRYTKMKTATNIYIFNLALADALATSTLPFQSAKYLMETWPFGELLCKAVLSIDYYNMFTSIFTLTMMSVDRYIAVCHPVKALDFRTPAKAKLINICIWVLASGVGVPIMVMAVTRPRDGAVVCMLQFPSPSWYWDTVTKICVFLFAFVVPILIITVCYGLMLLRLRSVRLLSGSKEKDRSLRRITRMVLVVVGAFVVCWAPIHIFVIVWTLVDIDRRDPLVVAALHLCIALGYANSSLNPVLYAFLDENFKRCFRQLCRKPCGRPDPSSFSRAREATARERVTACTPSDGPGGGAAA

INS1 = assay: INS-1E survival protection against cytokine death – cell-based, luminescence, retest, dose response (AID 449756); type: functional; conditions: Rattus norvegicus;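 further: cell death triggered by IL-1 beta plus TNF-alpha plus IFN-gamma mixture; protective hits raise ATP signal compared with cytokine alone wells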
[3] = molecular target: ATP-dependent molecular chaperone HSP82 (Candida albicans (strain WO-1) (Yeast), UniProt C4YTQ8); assay: steroid-induced GRE reporter decrease in yeast – S. cerevisiae, luminescence, Hsp90 inhibitor project, dose response (AID 2400); type: functional, cell-based;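 further: beta-galactosidase luminescence from glucocorticoid response element reporter as proxy for Hsp90 function; inhibitor potency where signal loss means Hsp90 inhibition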
Sequence of ATP-dependent molecular chaperone HSP82 (C4YTQ8 whole entry): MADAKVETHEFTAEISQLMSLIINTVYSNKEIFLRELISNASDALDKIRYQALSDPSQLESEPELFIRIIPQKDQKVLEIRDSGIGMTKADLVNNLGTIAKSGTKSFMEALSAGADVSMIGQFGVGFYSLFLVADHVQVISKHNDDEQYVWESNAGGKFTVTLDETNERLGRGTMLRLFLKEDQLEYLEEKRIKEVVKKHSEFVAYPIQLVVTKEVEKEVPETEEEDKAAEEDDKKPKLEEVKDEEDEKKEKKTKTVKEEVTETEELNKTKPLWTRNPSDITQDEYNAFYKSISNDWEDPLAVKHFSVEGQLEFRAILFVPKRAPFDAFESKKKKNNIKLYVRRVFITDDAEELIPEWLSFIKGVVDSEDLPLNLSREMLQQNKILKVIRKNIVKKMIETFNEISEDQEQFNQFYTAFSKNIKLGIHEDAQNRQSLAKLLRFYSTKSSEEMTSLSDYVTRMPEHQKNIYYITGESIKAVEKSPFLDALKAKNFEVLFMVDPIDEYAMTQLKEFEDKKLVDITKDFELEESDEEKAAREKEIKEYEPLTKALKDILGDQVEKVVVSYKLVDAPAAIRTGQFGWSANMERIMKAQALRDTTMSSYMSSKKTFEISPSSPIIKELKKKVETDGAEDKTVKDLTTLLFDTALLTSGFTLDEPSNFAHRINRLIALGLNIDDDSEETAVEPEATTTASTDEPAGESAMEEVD

[4] = fluconazole-exposed Candida albicans growth modulators – fluorescence, retest, confirmation (AID 2467); type: functional, cell-based
[5] = NIH-3T3 fibroblast cytotoxicity, dose response, cytotoxicity control, cell-based, fluorescence, Alamar Blue, secondary assay (AID 2327); type: functional;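 further: NIH-3T3 mouse fibroblasts cultured with fluconazole at 8 µg/mL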
[6] = molecular target: T1, Serine/threonine-protein phosphatase (Candida dubliniensis (strain CD36 / CBS 7987 / NCPF 3949 / NRRLY-17841) (Yeast), UniProt B9W6M3); assay: blockers of CaCl2-induced CDRE-lacZ signaling – S. cerevisiae, luminescence, secondary, dose response (AID 2388); type: functional, cell-based;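 further: yeast reporter cells carrying a calcineurin-responsive lacZ construct stimulated with calcium chloride; luminescent beta-galactosidase reporter signal in whole cells rather than isolated phosphatase activity; potency for inhibition where a drop in reporter signal means calcineurin blockade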
T1 sequence (B9W6M3 whole entry): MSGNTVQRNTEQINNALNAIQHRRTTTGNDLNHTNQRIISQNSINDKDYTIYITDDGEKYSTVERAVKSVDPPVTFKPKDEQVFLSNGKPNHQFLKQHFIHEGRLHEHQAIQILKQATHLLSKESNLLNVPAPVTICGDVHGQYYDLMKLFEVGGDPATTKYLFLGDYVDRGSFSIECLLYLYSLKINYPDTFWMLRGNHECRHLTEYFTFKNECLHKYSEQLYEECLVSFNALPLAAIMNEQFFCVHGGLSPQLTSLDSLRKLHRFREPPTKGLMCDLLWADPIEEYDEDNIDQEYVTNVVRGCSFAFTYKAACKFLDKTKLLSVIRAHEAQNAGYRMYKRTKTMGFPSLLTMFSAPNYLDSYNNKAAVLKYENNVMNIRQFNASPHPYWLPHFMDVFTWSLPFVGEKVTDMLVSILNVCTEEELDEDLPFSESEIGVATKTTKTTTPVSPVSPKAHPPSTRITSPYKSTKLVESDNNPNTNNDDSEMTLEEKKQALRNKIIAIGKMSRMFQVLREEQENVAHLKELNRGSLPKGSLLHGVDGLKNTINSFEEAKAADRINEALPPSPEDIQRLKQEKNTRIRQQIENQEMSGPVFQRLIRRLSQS

Protein skinhead-1 = molecular target: T2, Protein skinhead-1 (Caenorhabditis elegans, UniProt P34707); type: functional
T2 sequence (P34707 whole entry): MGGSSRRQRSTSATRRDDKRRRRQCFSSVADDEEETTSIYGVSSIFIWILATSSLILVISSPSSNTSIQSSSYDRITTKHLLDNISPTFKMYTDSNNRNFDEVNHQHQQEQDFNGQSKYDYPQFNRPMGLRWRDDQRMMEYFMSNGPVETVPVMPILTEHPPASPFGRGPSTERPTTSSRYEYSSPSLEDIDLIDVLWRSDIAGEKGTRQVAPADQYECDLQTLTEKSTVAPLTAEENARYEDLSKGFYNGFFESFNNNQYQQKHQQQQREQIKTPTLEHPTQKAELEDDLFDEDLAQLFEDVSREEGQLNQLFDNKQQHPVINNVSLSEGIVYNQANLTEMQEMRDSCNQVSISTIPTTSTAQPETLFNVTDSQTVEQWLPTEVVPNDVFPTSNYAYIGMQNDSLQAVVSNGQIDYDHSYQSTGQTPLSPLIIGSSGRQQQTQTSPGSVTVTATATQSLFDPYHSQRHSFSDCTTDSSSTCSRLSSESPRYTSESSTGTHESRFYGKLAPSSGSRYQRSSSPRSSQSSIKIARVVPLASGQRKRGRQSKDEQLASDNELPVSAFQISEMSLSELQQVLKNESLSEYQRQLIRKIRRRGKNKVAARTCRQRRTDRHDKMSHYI

cells = type: functional, cell-based; conditions: HEK-CNG
[7] = molecular target: T3, Microphthalmia-associated transcription factor (Homo sapiens, UniProt O75030); assay: reducers of TRPM1 reporter luminescence, concentration series – cell-based, SK-MEL-5, cherry-picked, set 3, MITF inhibitor project, dose response (AID 493073); type: functional;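 further: SK-MEL-5 melanoma cells with luciferase driven by the MITF target TRPM1 promoter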
T3 sequence (O75030 whole entry): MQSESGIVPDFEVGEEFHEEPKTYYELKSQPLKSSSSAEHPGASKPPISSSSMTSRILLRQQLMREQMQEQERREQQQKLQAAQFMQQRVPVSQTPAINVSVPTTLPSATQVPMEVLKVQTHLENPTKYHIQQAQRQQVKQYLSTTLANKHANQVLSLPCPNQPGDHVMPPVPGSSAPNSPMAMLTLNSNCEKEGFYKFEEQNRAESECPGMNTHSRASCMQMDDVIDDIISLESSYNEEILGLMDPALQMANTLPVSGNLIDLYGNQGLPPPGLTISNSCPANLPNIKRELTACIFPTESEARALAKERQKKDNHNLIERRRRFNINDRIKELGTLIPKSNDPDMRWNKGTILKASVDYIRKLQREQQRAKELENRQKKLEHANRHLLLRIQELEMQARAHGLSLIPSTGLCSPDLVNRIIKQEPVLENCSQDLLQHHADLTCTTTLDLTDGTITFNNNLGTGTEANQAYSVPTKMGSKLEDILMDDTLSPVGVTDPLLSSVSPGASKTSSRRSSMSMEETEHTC

A-375 [8] = assay: proliferation inhibition in MITF-low A375 cells – cell-based, cherry-pick samples, set 2, counter-screen for MITF modulator project, dose response (AID 540335); type: functional; conditions: Homo sapiens
Galanin receptor type 3 = molecular target: T4, Galanin receptor type 3 (Homo sapiens, UniProt O60755); assay: Fluorescence-based cell-based primary high throughput dose response assay to identify antagonists of the Galanin Receptor 3 (GalR3).; type: functional
T4 sequence (O60755 whole entry): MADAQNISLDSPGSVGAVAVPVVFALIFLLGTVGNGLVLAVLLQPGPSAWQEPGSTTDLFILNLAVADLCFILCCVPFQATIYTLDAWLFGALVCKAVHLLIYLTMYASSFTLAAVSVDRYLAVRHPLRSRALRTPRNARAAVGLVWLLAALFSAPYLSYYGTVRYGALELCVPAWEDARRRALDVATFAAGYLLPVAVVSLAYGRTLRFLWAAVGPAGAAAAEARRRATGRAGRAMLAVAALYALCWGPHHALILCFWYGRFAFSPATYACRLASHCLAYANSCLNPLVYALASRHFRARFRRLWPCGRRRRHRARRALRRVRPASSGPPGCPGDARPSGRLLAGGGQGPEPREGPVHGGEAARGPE

[9] = microbe, parasite or virus in culture; type: functional; conditions: Mycobacterium tuberculosis
Vero = assay: viability of Vero cells under compound – cytotoxicity control for flavivirus capping enzyme inhibitors (AID 588742); type: functional; conditions: Chlorocebus sabaeus
Escherichia coli = assay: microbe, parasite or virus in culture
[10] = molecular target: T5, Short transient receptor potential channel 4 (Mus musculus, UniProt Q9QUQ5); assay: calcium entry via TRPC4 opening agents – cell-based, HEK293 TRPC4/mu-opioid, Fluo-4 calcium, dose response (AID 434937); type: functional
T5 sequence (Q9QUQ5 whole entry): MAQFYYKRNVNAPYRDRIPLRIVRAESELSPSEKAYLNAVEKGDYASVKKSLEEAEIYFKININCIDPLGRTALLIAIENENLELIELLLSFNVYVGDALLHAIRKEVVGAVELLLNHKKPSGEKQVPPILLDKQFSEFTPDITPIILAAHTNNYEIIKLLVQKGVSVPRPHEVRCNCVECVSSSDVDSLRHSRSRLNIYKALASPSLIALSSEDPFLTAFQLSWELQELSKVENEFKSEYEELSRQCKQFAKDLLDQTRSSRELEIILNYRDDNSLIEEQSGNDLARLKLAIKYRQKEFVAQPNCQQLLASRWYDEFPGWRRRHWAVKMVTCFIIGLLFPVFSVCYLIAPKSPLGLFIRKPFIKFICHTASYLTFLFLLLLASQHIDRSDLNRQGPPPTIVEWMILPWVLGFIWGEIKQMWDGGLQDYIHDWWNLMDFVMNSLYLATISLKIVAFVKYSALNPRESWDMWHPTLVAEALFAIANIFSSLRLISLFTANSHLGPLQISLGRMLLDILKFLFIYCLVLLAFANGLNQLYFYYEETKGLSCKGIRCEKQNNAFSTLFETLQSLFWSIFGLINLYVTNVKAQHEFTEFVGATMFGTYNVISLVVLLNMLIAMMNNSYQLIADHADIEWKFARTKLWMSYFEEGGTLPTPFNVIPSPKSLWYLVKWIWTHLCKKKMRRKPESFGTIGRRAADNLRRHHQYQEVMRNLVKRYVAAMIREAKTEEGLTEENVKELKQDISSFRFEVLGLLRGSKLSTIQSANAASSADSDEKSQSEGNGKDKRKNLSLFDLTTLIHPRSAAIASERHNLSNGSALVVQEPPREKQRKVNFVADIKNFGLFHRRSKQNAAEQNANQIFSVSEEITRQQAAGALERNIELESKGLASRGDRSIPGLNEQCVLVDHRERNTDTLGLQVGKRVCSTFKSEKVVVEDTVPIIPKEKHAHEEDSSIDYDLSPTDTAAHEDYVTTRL

A-375 [11] = assay: MITF: Counter assay: A375 proliferation Measured in Cell-Based System Using Plate Reader - 2084-03_Inhibitor_Dose_DryPowder_Activity. [Related pubchem assays (depositor defined):AID488944]; type: functional; conditions: Homo sapiens
Beta-galactosidase = Beta-galactosidase (Escherichia coli, UniProt Q8VNN2); assay: PubChem AID 485352; type: functional
Sequence of Beta-galactosidase (Q8VNN2 whole entry): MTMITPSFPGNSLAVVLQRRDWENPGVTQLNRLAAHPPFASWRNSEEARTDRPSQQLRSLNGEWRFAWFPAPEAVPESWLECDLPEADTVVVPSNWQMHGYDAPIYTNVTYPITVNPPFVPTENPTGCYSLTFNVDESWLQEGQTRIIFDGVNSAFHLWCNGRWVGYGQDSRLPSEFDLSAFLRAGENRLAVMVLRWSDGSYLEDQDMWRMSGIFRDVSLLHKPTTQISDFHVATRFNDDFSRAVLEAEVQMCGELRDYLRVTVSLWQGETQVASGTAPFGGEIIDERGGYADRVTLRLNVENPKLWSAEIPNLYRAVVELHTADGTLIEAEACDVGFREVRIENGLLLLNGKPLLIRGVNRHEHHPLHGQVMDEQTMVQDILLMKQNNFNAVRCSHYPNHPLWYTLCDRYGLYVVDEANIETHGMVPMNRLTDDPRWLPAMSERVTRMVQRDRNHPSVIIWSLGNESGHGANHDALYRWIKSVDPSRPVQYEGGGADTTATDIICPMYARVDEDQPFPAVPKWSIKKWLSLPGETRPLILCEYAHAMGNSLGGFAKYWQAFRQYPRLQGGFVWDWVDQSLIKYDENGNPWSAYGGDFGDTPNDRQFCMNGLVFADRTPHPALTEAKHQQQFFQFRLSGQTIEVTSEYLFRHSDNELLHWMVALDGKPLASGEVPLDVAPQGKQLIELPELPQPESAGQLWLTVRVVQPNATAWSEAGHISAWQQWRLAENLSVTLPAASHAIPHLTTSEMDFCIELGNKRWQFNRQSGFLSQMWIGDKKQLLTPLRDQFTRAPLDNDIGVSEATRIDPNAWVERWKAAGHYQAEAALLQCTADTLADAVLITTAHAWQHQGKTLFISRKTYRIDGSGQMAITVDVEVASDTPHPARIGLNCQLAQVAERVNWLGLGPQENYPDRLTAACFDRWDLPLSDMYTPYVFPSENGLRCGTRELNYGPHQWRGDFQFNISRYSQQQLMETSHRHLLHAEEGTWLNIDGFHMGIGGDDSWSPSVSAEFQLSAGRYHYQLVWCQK

[12] = molecular target: T6, Type-1 angiotensin II receptor (Homo sapiens, UniProt P30556); assay: antagonism of angiotensin II type 1 receptor – cell-based, uHTS hits, selectivity assay for APJ receptor antagonist project, dose response (AID 463214); type: functional;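 further: antagonist potency against angiotensin II stimulated AT1 response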
T6 sequence (P30556 whole entry): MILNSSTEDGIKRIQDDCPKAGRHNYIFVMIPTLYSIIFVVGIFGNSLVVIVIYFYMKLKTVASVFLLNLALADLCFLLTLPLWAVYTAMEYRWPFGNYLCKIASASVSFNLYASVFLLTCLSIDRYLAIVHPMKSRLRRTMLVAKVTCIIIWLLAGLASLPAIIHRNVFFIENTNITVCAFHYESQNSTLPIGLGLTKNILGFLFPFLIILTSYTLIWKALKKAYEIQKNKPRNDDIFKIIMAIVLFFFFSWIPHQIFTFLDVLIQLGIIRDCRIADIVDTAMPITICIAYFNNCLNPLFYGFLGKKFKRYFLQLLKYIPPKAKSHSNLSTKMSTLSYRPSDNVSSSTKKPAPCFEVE

[13] = decrease of insulin promoter-GFP reporter – imaging, high-content screening, mouse beta cells (AID 1628); type: functional; conditions: MIN6
[14] = MIN6 cell viability loss – mouse insulinoma, cytotoxicity control, dose response (AID 2122); type: functional;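 further: confirmatory high-throughput counterscreen run to flag cytotoxic compounds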

Sequence of Mu-type opioid receptor (P35372 whole entry): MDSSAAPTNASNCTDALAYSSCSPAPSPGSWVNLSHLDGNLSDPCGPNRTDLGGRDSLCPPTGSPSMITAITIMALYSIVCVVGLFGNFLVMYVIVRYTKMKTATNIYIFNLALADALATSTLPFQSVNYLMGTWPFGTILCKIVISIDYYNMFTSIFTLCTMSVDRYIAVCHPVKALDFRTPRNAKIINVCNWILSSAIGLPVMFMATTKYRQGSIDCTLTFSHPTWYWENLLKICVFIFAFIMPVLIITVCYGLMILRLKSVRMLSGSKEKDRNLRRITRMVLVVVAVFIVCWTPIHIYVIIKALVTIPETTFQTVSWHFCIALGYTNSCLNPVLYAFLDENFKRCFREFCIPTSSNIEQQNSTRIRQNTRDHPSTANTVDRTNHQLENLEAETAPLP

CCOC(=O)C1(Cc2ccccc2)CCN(Cc2cccn2-c2nccs2)CC1
EC50 (Mu-type opioid receptor): > 92.5 µM (inactive) | EC50 [1]: > 92.5 µM (inactive) | EC50 [2]: > 92.5 µM (inactive)

COc1cccc(COc2cc3ccccc3nc2C)c1
AC50 (INS1): 2.61 µM (active) | EC50 [3]: > 160 µM (inactive) | EC50 [4]: 0.914 µM (active) | EC50 [5]: > 150 µM (inconclusive) | EC50 [6]: > 180 µM (inactive) | IC50 (Protein skinhead-1): 80.1 µM (inactive)

CC(C)(C)c1ccc(-c2c[n+](-c3ccc(Br)cc3)c3n2CCCS3)cc1
EC50 (cells): > 29.9 µM (inactive) | AC50 [7]: 3.2 µM (active) | EC50 [4]: 0.199 µM (active) | EC50 [5]: > 160 µM (inactive) | AC50 (A-375 [8]): 34.1 µM (active) | IC50 (Galanin receptor type 3): 10.1 µM (inactive)

Cc1sc2nc3c4ccccc4c(NCc4ccco4)nn3c(=O)c2c1C
CC50 [9]: 37.6 µM (active) | CC50 (Vero): > 40 µM (active)

COc1ccc(CC2=C(O)C(=O)c3ccccc3C2=O)cc1
CC50 (Vero): > 40 µM (active)

O=C(Nc1ccccc1)c1ccc(NC2CCCCC2)c(S(=O)(=O)N2CCOCC2)c1
EC50 (Mu-type opioid receptor): > 92.5 µM (inactive) | EC50 [1]: > 92.5 µM (inactive) | EC50 [2]: > 92.5 µM (inactive)

Cc1nn(Cc2ccccc2)c(C)c1C(=O)NCc1ccccc1
AC50 (Escherichia coli): 42.7 µM (active)

CN(C)CCCN(C(=O)c1ccc(Cl)s1)c1nc2cc3c(cc2s1)OCO3
EC50 [10]: 5.96 µM (active) | AC50 [7]: 22.9 µM (active) | AC50 (A-375 [8]): > 11 µM (active) | AC50 (A-375 [11]): > 11 µM (active)

O=C(COC(=O)c1ccncc1)c1ccc(Cl)c(Cl)c1
EC50 (Beta-galactosidase): > 40 µM (inactive) | IC50 [12]: 15 µM (active)

CC(C)(C)c1ccc(C(=O)O)c(C(=O)c2ccc(C(=O)O)cc2)c1
AC50 (Escherichia coli): 49.3 µM (active)

CC(=O)NC(CC(=O)NCC(c1ccco1)N(C)C)c1ccccc1 (centres undefined)
EC50 [10]: 0.0533 µM (active) | EC50 (Mu-type opioid receptor): > 92.5 µM (inactive) | EC50 [1]: > 92.5 µM (inactive) | EC50 [2]: 31 µM (inactive)

Cc1ccc(C(=O)COC(=O)CNS(=O)(=O)c2ccccc2)cc1[N+](=O)[O-]
EC50 (Beta-galactosidase): > 40 µM (inactive) | IC50 [12]: 33 µM (not active)

COc1ccc(-c2nc3n(c2C)Cc2ccccc2-3)cc1
AC50 (A-375 [11]): 30.1 µM (active)

Cn1cc(CNCc2ccc(OC(F)(F)F)cc2)c(-c2ccc3c(c2)OCCO3)n1
AC50 (INS1): 1.04 µM (active) | IC50 [13]: 0.272 µM (active) | IC50 [14]: < 0.25 µM (active)
